Test results as given in the supplement of paper PMC11208160.

Assay: recombinant UMI read abundance after kanamycin selection (control-corrected) (log10(CPM+1)); higher = more efficient recombination; extreme values may be limits of the assay; sequences stand for … in AGTGCAGAGAAAATCGGCCAGTTTTCTCTGCCTGCAGTCCGCATGCCGTGGGACCCCTTGGGTTCTAACCTGTTGCCTAGATTTATGCAGCGGACTGCCTTTCTCCCAAAGTGATAAACCGG…AGGTTGGTTTCACT; site = the 11-nt donor
In short: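 Reported values are log10(CPM+1) from a pooled Escherichia coli screen of donor and donor-binding-loop pairs for the IS621 bridge recombinase. Selection used IPTG (0.07 mM) plus kanamycin, against unselected plating, each in two replicates. Recombinant UMIs were amplified across the donor–target junction, sequenced, converted to CPM, averaged over replicates and scaled by control-derived factors.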
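Further: IS621 bridge recombinase in Escherichia coli cells against a fixed T5 target plasmid.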

Sequence | recombinant UMI read abundance (log10)
AGGAGGCCATGGACCGGTTTTCCCGGTAATCCGTATTTGCA (site AGGAAGACTTG) | 0
AGGAGGCCATGGACCGGTTTTCCCGGTAATCCGTATTTGCA (site AGGAGGCCTTG) | 0.211
AGGAGGGCATGGACCGGTTTTCCCGGTAATCCGTATTTGCC (site AGGAGGGCTGG) | 2.16
AGGAGTGCATGGACCGGTTTTCCCGGTAATCCGTATTTGAG (site AGGAGTGCTCT) | 2.37
AGGATAACATGGACCGGTTTTCCCGGTAATCCGTATTTGCA (site AGGAAGACTTG) | 1.01
AGGATAACATGGACCGGTTTTCCCGGTAATCCGTATTTGCA (site AGGATAACTTG) | 2.55
AGGATCTCATGGACCGGTTTTCCCGGTAATCCGTATTTGAA (site AGGATCTCTTT) | 2.92
AGGATGTCATGGACCGGTTTTCCCGGTAATCCGTATTTGCA (site AGGAAGACTTG) | 0.00922
AGGATGTCATGGACCGGTTTTCCCGGTAATCCGTATTTGCA (site AGGATGTCTTG) | 3.06
AGGCAGGCATGGACCGGTTTTCCCGGTAATCCGTATTTGCA (site AGGAAGACTTG) | 0
AGGCAGGCATGGACCGGTTTTCCCGGTAATCCGTATTTGCA (site AGGCAGGCTTG) | 2.63
AGGCATACATGGACCGGTTTTCCCGGTAATCCGTATTTGCA (site AGGAAGACTTG) | 0
AGGCATACATGGACCGGTTTTCCCGGTAATCCGTATTTGCA (site AGGCATACTTG) | 2.15
AGGCGACCATGGACCGGTTTTCCCGGTAATCCGTATTTGTT (site AGGCGACCTAA) | 0.00859
AGGCTCCCATGGACCGGTTTTCCCGGTAATCCGTATTTGTG (site AGGATCCCTCA) | 0.00474
AGGCTCCCATGGACCGGTTTTCCCGGTAATCCGTATTTGTG (site AGGCTCCCTCA) | 0.0267
AGGCTCCCATGGACCGGTTTTCCCGGTAATCCGTATTTGTG (site AGGGTCCCTCA) | 0.0171
AGGCTCCCATGGACCGGTTTTCCCGGTAATCCGTATTTGTG (site AGGTTCCCTCA) | 0.0277
AGGGACCCATGGACCGGTTTTCCCGGTAATCCGTATTTGAA (site AGGGACCCTTT) | 0.531
AGGGAGACATGGACCGGTTTTCCCGGTAATCCGTATTTGTA (site AGGAAGACTTG) | 0
AGGGAGACATGGACCGGTTTTCCCGGTAATCCGTATTTGTA (site AGGGAGACTTA) | 1.57
AGGGGTCCATGGACCGGTTTTCCCGGTAATCCGTATTTGTA (site AGGGGTCCTTA) | 0.489
AGGTAATCATGGACCGGTTTTCCCGGTAATCCGTATTTGAG (site AGGTAATCTCT) | 2.83
AGGTACACATGGACCGGTTTTCCCGGTAATCCGTATTTGCA (site AGGAAGACTTG) | 0
AGGTACACATGGACCGGTTTTCCCGGTAATCCGTATTTGCA (site AGGTACACTTG) | 2.46

Sequence | recombinant UMI read abundance (log10)
AGGTCAACATGGACCGGTTTTCCCGGTAATCCGTATTTGAT (site AGGTCAACTAT) | 0.075
AGGTCCCCATGGACCGGTTTTCCCGGTAATCCGTATTTGTG (site AGGTACCCTCA) | 0.0207
AGGTCCCCATGGACCGGTTTTCCCGGTAATCCGTATTTGTG (site AGGTCCCCTCA) | 0.0562
AGGTCCCCATGGACCGGTTTTCCCGGTAATCCGTATTTGTG (site AGGTGCCCTCA) | 0.0373
AGGTCCCCATGGACCGGTTTTCCCGGTAATCCGTATTTGTG (site AGGTTCCCTCA) | 0.00496
AGGTCCTCATGGACCGGTTTTCCCGGTAATCCGTATTTGGG (site AGGTCCTCTCC) | 0.0176
AGGTGACCATGGACCGGTTTTCCCGGTAATCCGTATTTGCC (site AGGTGACCTGG) | 0
AGGTGCACATGGACCGGTTTTCCCGGTAATCCGTATTTGAA (site AGGTGCACTTT) | 0.73
AGGTGCCCATGGACCGGTTTTCCCGGTAATCCGTATTTGTG (site AGGTACCCTCA) | 0.015
AGGTGCCCATGGACCGGTTTTCCCGGTAATCCGTATTTGTG (site AGGTCCCCTCA) | 0.0213
AGGTGCCCATGGACCGGTTTTCCCGGTAATCCGTATTTGTG (site AGGTGCCCTCA) | 0.0128
AGGTGCCCATGGACCGGTTTTCCCGGTAATCCGTATTTGTG (site AGGTTCCCTCA) | 0.755
AGGTGGTCATGGACCGGTTTTCCCGGTAATCCGTATTTGCA (site AGGTGGTCTTG) | 2.62
AGGTTCCCATGGACCGGTTTTCCCGGTAATCCGTATTTGAG (site AGGTTCCCTCA) | 0
AGGTTCCCATGGACCGGTTTTCCCGGTAATCCGTATTTGAG (site AGGTTCCCTCC) | 0.0175
AGGTTCCCATGGACCGGTTTTCCCGGTAATCCGTATTTGAG (site AGGTTCCCTCG) | 0.00792
AGGTTCCCATGGACCGGTTTTCCCGGTAATCCGTATTTGAG (site AGGTTCCCTCT) | 0.00255
AGGTTCCCATGGACCGGTTTTCCCGGTAATCCGTATTTGTC (site AGGTTCCCTAA) | 0.0146
AGGTTCCCATGGACCGGTTTTCCCGGTAATCCGTATTTGTC (site AGGTTCCCTCA) | 0.0034
AGGTTCCCATGGACCGGTTTTCCCGGTAATCCGTATTTGTC (site AGGTTCCCTGA) | 0
AGGTTCCCATGGACCGGTTTTCCCGGTAATCCGTATTTGTC (site AGGTTCCCTTA) | 0
AGGTTCCCATGGACCGGTTTTCCCGGTAATCCGTATTTGTG (site AAGTTCCCTCA) | 0.0108
AGGTTCCCATGGACCGGTTTTCCCGGTAATCCGTATTTGTG (site ACGTTCCCTCA) | 0.0097
AGGTTCCCATGGACCGGTTTTCCCGGTAATCCGTATTTGTG (site AGATTCCCTCA) | 0.438
AGGTTCCCATGGACCGGTTTTCCCGGTAATCCGTATTTGTG (site AGCTTCCCTCA) | 0.0211

Sequence | recombinant UMI read abundance (log10)
AGGTTCCCATGGACCGGTTTTCCCGGTAATCCGTATTTGTG (site AGGATCCCTCA) | 0.163
AGGTTCCCATGGACCGGTTTTCCCGGTAATCCGTATTTGTG (site AGGCTCCCTCA) | 0.149
AGGTTCCCATGGACCGGTTTTCCCGGTAATCCGTATTTGTG (site AGGGTCCCTCA) | 0.0158
AGGTTCCCATGGACCGGTTTTCCCGGTAATCCGTATTTGTG (site AGGTACCCTCA) | 0.00814
AGGTTCCCATGGACCGGTTTTCCCGGTAATCCGTATTTGTG (site AGGTCCCCTCA) | 0.019
AGGTTCCCATGGACCGGTTTTCCCGGTAATCCGTATTTGTG (site AGGTGCCCTCA) | 0.018
AGGTTCCCATGGACCGGTTTTCCCGGTAATCCGTATTTGTG (site AGGTTACCTCA) | 0.00985
AGGTTCCCATGGACCGGTTTTCCCGGTAATCCGTATTTGTG (site AGGTTCACTCA) | 0.0115
AGGTTCCCATGGACCGGTTTTCCCGGTAATCCGTATTTGTG (site AGGTTCCCTAA) | 0.00843
AGGTTCCCATGGACCGGTTTTCCCGGTAATCCGTATTTGTG (site AGGTTCCCTCA) | 0.152
AGGTTCCCATGGACCGGTTTTCCCGGTAATCCGTATTTGTG (site AGGTTCCCTCC) | 0.014
AGGTTCCCATGGACCGGTTTTCCCGGTAATCCGTATTTGTG (site AGGTTCCCTCG) | 0.328
AGGTTCCCATGGACCGGTTTTCCCGGTAATCCGTATTTGTG (site AGGTTCCCTCT) | 0.0108
AGGTTCCCATGGACCGGTTTTCCCGGTAATCCGTATTTGTG (site AGGTTCCCTGA) | 0
AGGTTCCCATGGACCGGTTTTCCCGGTAATCCGTATTTGTG (site AGGTTCCCTTA) | 0
AGGTTCCCATGGACCGGTTTTCCCGGTAATCCGTATTTGTG (site AGGTTCGCTCA) | 0.0252
AGGTTCCCATGGACCGGTTTTCCCGGTAATCCGTATTTGTG (site AGGTTCTCTCA) | 0.634
AGGTTCCCATGGACCGGTTTTCCCGGTAATCCGTATTTGTG (site AGGTTGCCTCA) | 0.0234
AGGTTCCCATGGACCGGTTTTCCCGGTAATCCGTATTTGTG (site AGGTTTCCTCA) | 0.00972
AGGTTCCCATGGACCGGTTTTCCCGGTAATCCGTATTTGTG (site AGTTTCCCTCA) | 0.0518
AGGTTCCCATGGACCGGTTTTCCCGGTAATCCGTATTTGTG (site ATGTTCCCTCA) | 0.0101
AGGTTCCCATGGACCGGTTTTCCCGGTAATCCGTATTTGTG (site CGGTTCCCTCA) | 0.0101
AGGTTCCCATGGACCGGTTTTCCCGGTAATCCGTATTTGTG (site GGGTTCCCTCA) | 0.0086
AGGTTCCCATGGACCGGTTTTCCCGGTAATCCGTATTTGTG (site TGGTTCCCTCA) | 0.00656
AGTAAGGCATGGACCGGTTTTCCCGGTAATCCGTATTTGAT (site AGTAAGGCTAT) | 2.27
